Literature values, collected in patent US11883453B2, “Formulation based on medicinal plant, or part or extract thereof, use of the formulation and product including said formulation” (priority 2018, dated 2024).

What was measured:
[1] = rate proportional to concentration
[2] = disk-diffusion
3T3 fibroblast strains [3] = conditions: MTT, 3T3 fibroblasts
3T3 fibroblast strains [4] = conditions: Scratch Assay, 3T3 fibroblasts, compared to Calendula extract

SMILES | Elimination of free radicals [1] | Antimicrobial activity (inhibition halos in agar) [2] | Cytotoxicity (3T3 fibroblast strains [3]) | Effect on in vitro healing (3T3 fibroblast strains [4])
C=C(C)[C@@H]1CC[C@]2(C)CC[C@]3(C)[C@H](CC[C@@H]4[C@@]5(C)CC[C@H](O)C(C)(C)[C@@H]5CC[C@]43C)[C@@H]12 [Lupeol] | excellent properties to eliminate free radicals | confirmed the antimicrobial activity | no toxicity found | 
CCCCCCCCCCCCCC(=O)OC1CCC2(C)C(CCC3(C)C2CCC2C4C(C)C(C)=CCC4(C)C(O)CC23C)C1(C)C (centres unmarked) [faradiol myristate] |  |  |  | partial role in the healing process compared to the extract
CCCCCCCCCCCCCCCC(=O)OC1CCC2(C)C(CCC3(C)C2CCC2C4C(C)C(C)=CCC4(C)C(O)CC23C)C1(C)C (centres unmarked) [faradiol palmitate] |  |  |  | partial role in the healing process compared to the extract
